Test results from patent US9120749B2, “Quinoline derivatives and MELK inhibitors containing the same” (ONCOTHERAPY SCIENCE, INC., priority 2010, dated 2015).
Counter-ions that a name gives are not always drawn. Like-named read-outs stand apart in the source and are kept apart here.

What was measured:
A549 cells = assay: Cell-based assay: anti-proliferative activity, Cell Counting Kit-8, 72 hours (A549); details: 72 hours
Procedure, shortened: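 A549 cells were seeded in 96-well plates and exposed to candidate inhibitors for 72 hours. Cell growth was then measured with Cell Counting Kit-8, and IC50 values were calculated from the resulting growth data.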

T47D cells = assay: Cell-based assay: anti-proliferative activity, Cell Counting Kit-8, 72 hours (T47D)
Procedure, shortened: (§1)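 T47D, A549 and BT-549 cells, with MELK-negative HT-1197 as control (MELK status checked by western blot), seeded at 2,000–3,000 cells/well. Growth measured by CCK-8 72 hours after inhibitor exposure; IC50 values calculated.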

DU4475 cells = assay: Cell-based assay: anti-proliferative activity, Cell Counting Kit-8, 72 hours (DU4475)
HT-1197 cells = assay: Cell-based assay: anti-proliferative activity, Cell Counting Kit-8, 72 hours (HT-1197, negative control without MELK expression); details: HT1197 cells (negative control), 72 hours
Procedure, shortened: as §1

MELK = MELK (Homo sapiens, UniProt Q14680); assay: Kinase assay: MELK activity, phosphorylation of FITC-labeled histone H3 peptide measured by IMAP fluorescence polarization; format: biochemical; details: read-out: IC50 (μM) (kinase assay)
Procedure, shortened: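 A FITC-labelled histone H3 peptide served as substrate, with compounds serially diluted to 1% DMSO final. Reactions were stopped with three volumes of IMAP progressive binding solution. After 0.5 h at room temperature, fluorescence polarization was read.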

Sequence of MELK (Q14680 whole entry, looked up): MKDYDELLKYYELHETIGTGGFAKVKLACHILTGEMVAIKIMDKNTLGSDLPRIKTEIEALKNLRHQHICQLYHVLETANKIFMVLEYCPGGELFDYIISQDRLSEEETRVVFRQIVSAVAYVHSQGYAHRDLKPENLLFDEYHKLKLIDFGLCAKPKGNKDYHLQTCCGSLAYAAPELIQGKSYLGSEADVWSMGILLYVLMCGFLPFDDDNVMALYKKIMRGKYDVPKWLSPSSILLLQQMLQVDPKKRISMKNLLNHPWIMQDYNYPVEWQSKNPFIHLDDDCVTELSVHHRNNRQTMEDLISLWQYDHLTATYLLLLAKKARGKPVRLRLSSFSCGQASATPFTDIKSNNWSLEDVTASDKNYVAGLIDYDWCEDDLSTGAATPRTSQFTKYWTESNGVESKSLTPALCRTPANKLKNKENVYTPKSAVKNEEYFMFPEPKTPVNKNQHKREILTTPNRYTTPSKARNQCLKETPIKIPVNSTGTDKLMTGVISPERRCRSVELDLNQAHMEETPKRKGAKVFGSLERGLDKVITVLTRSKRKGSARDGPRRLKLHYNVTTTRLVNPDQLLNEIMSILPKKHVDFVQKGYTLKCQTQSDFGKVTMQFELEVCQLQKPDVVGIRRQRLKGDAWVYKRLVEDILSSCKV

Compound | IC50 (A549 cells; Homo sapiens, A549, 72 h) | IC50 (T47D cells; Homo sapiens, T47D, 72 h) | IC50 (DU4475 cells; Homo sapiens, DU-4475, 72 h) | IC50 (HT-1197 cells; Homo sapiens, HT1197, 72 h) | IC50 (MELK) | IC50 (A549 cells; hydrochloride) | IC50 (T47D cells; 72 hours, hydrochloride) | IC50 (DU4475 cells; hydrochloride) | IC50 (HT-1197 cells; hydrochloride) | IC50 (MELK; hydrochloride)
COc1cc(-c2ccc3ncc(C(=O)C4CC4)c(C4=CCNCC4)c3c2)cc(Cl)c1O [Example 516, (6-(3-chloro-4-hydroxy-5-methoxyphenyl)-4-(1,2,3,6-tetrahydropyridin-4-yl)quinolin-3-yl)(cyclopropyl)methanone] | 0.36 µM | 0.52 µM | 0.66 µM | 3 µM | 0.0044 µM |  |  |  |  | 
CN(C)CCc1ccc(Nc2c(C(=O)C3CC3)cnc3ccc(-c4cc(Cl)c(O)c(Cl)c4)cc23)cc1 [Example 613, Cyclopropyl(6-(3,5-dichloro-4-hydroxyphenyl)-4-(4-(2-(dimethylamino)ethyl)phenylamino)quinolin-3-yl)methanone] | 0.075 µM | 0.13 µM | 0.028 µM | 1 µM | 0.0022 µM |  |  |  |  | 
O=C(c1cnc2ccc(-c3cc(Cl)c(O)c(Cl)c3)cc2c1Nc1cnn(C2CCNCC2)c1)C1CC1 [Example 511, cyclopropyl(6-(3,5-dichloro-4-hydroxyphenyl)-4-((1-(piperidin-4-yl)-1H-pyrazol-4-yl)amino)quinolin-3-yl)methanone] | 0.31 µM | 0.18 µM | 0.019 µM | 10 µM | 0.017 µM |  |  |  |  | 
NC1CCN(c2ccc(Nc3c(C(=O)C4CC4)cnc4ccc(-c5cc(F)c(O)c(Cl)c5)cc34)cn2)C1 (centres unmarked) [Example 577, (4-(6-(3-aminopyrrolidin-1-yl)pyridin-3-ylamino)-6-(3-chloro-5-fluoro-4-hydroxyphenyl)quinolin-3-yl)(cyclopropyl)methanone hydrochloride] |  |  |  |  |  | 0.029 µM | 0.0065 µM | 0.014 µM | 0.52 µM | 0.0037 µM
COc1cc(-c2ccc3ncc(C(C)=O)c(Nc4cnc(N5CCNCC5)nc4)c3c2)cc(Cl)c1O [Example 616, 1-(6-(3-chloro-4-hydroxy-5-methoxyphenyl)-4-(2-(piperazin-1-yl)pyrimidin-5-ylamino)quinolin-3-yl)ethanone] | 0.66 µM | 0.22 µM | 0.5 µM | 1.8 µM | 0.0044 µM |  |  |  |  | 
O=C(c1cnc2ccc(-c3cc(F)c(O)c(Cl)c3)cc2c1N[C@H]1CC[C@H](CN2CC[C@@H](F)C2)CC1)C1CC1 [Example 570, (6-(3-chloro-5-fluoro-4-hydroxyphenyl)-4-((trans-4-(((R)-3-fluoropyrrolidin-1-yl)methyl)cyclohexyl)amino)quinolin-3-yl)(cyclopropyl)methanone] | 0.13 µM | 0.14 µM | 0.089 µM | 0.16 µM | 0.016 µM |  |  |  |  | 
CN(C)Cc1cccc(Nc2c(C(=O)C3CC3)cnc3ccc(-c4cc(F)c(O)c(Cl)c4)cc23)c1 [Example 629, (6-(3-chloro-5-fluoro-4-hydroxyphenyl)-4-(3-((dimethylamino)methyl)phenylamino)quinolin-3-yl)(cyclopropyl)methanone] | 0.12 µM | 0.58 µM | 0.069 µM | 3.3 µM | 0.0051 µM |  |  |  |  | 
NC1CCN(c2ncc(Nc3c(C(=O)C4CC4)cnc4ccc(-c5cc(F)c(O)c(Cl)c5)cc34)cn2)CC1 [Example 567, (4-(2-(4-aminopiperidin-1-yl)pyrimidin-5-ylamino)-6-(3-chloro-5-fluoro-4-hydroxyphenyl)quinolin-3-yl)(cyclopropyl)methanone] | 0.34 µM | 0.076 µM | 0.18 µM | 1.9 µM | 0.0083 µM |  |  |  |  | 
COc1cc(-c2ccc3ncc(C(=O)C4CC4)c(Nc4ccc(N5CCC(N)C5)nc4)c3c2)cc(Cl)c1O (centres unmarked) [Example 568, (4-(6-(3-aminopyrrolidin-1-yl)pyridin-3-ylamino)-6-(3-chloro-4-hydroxy-5-methoxyphenyl)quinolin-3-yl)(cyclopropyl)methanone] | 0.082 µM | 0.057 µM | 0.045 µM | 0.62 µM | 0.0027 µM |  |  |  |  | 
CC(C)C(=O)c1cnc2ccc(-c3cc(F)c(O)c(Cl)c3)cc2c1N[C@H]1CC[C@H](CN(C)C)CC1 [Example 620] | 0.18 µM | 0.16 µM | 0.095 µM | 0.17 µM | 0.0066 µM |  |  |  |  | 
CN(C)C[C@H]1CC[C@@H](Nc2c(C(=O)C3CC3)cnc3ccc(-c4cc(F)c(O)c(Cl)c4)cc23)CC1 [Example 514, (6-(3-chloro-5-fluoro-4-hydroxyphenyl)-4-((1s,4s)-4-((dimethylamino)methyl)cyclohexylamino)quinolin-3-yl)(cyclopropyl)methanone] | 0.26 µM | 0.44 µM | 0.21 µM | 0.77 µM | 0.0028 µM |  |  |  |  | 
COc1cc(-c2ccc3ncc(C(=O)C4CC4)c(Nc4ccc(C(C)(C)N)cc4)c3c2)cc(Cl)c1O [Example 603, (4-(4-(2-aminopropan-2-yl)phenylamino)-6-(3-chloro-4-hydroxy-5-methoxyphenyl)quinolin-3-yl)(cyclopropyl)methanone] | 0.64 µM | 0.52 µM | 0.37 µM | 1.7 µM | 0.0036 µM |  |  |  |  | 
CN(C)Cc1ccc(Nc2c(C(=O)C3CC3)cnc3cc(F)c(-c4cc(Cl)c(O)c(Cl)c4)cc23)cc1 [Example 547, cyclopropyl(6-(3,5-dichloro-4-hydroxyphenyl)-4-(4-((dimethylamino)methyl)phenylamino)-7-fluoroquinolin-3-yl)methanone] | 0.13 µM | 0.41 µM | 0.14 µM | 1.9 µM | 0.02 µM |  |  |  |  | 
NC1CCCN(c2ncc(Nc3c(C(=O)C4CC4)cnc4ccc(-c5cc(F)c(O)c(Cl)c5)cc34)cn2)C1 (centres unmarked) [Example 626, (4-(2-(3-aminopiperidin-1-yl)pyrimidin-5-ylamino)-6-(3-chloro-5-fluoro-4-hydroxyphenyl)quinolin-3-yl)(cyclopropyl)methanone] | 0.0073 µM | 0.0051 µM | 0.0048 µM | 0.05 µM | 0.0011 µM |  |  |  |  | 
CCCC(=O)c1cnc2ccc(-c3cc(Cl)c(O)c(OC)c3)cc2c1Nc1ccc(CN(C)C)cc1 [Example 538, 1-(6-(3-chloro-4-hydroxy-5-methoxyphenyl)-4-(4-((dimethylamino)methyl)phenylamino)quinolin-3-yl)butan-1-one] | 0.45 µM | 0.28 µM | 0.27 µM | 3.1 µM | 0.02 µM |  |  |  |  | 
NC[C@H]1CC[C@@H](Nc2c(C(=O)C3CC3)cnc3ccc(-c4cc(F)c(O)c(Cl)c4)cc23)CC1 [Example 515, (4-((1s,4s)-4-(aminomethyl)cyclohexylamino)-6-(3-chloro-5-fluoro-4-hydroxyphenyl)quinolin-3-yl)(cyclopropyl)methanone] | 0.83 µM | 0.23 µM | 0.12 µM | 3.9 µM | 0.0034 µM |  |  |  |  | 
NC1CCN(c2ncc(Nc3c(C(=O)C4CC4)cnc4ccc(-c5cc(F)c(O)c(Cl)c5)cc34)cn2)C1 (centres unmarked) [Example 572, (4-(2-(3-aminopyrrolidin-1-yl)pyrimidin-5-ylamino)-6-(3-chloro-5-fluoro-4-hydroxyphenyl)quinolin-3-yl)(cyclopropyl)methanone] | 0.03 µM | 0.0076 µM | 0.011 µM | 0.37 µM | 0.003 µM |  |  |  |  | 
CCCC(=O)c1cnc2ccc(-c3cc(Cl)c(O)c(Cl)c3)cc2c1Nc1ccc(CN(C)C)cc1 [Example 530, 1-(6-(3,5-dichloro-4-hydroxyphenyl)-4-((4-((dimethylamino)methyl)phenyl)amino)quinolin-3-yl)butan-1-one] | 0.15 µM | 0.07 µM | 0.086 µM | 1.2 µM | 0.0045 µM |  |  |  |  | 
COC1CCN(C[C@H]2CC[C@H](Nc3c(C(=O)C4CC4)cnc4ccc(-c5cc(Cl)c(O)c(Cl)c5)cc34)CC2)C1 (stereo partly drawn) [Example 598, cyclopropyl(6-(3,5-dichloro-4-hydroxyphenyl)-4-((trans-4-((3-methoxypyrrolidin-1-yl)methyl)cyclohexyl)amino)quinolin-3-yl)methanone] | 0.13 µM | 0.18 µM | 0.066 µM | 1 µM | 0.0023 µM |  |  |  |  | 
O=C(c1cnc2ccc(-c3cc(Cl)c(O)c(Cl)c3)cc2c1N[C@H]1CC[C@H](CN2CC[C@@H](F)C2)CC1)C1CC1 [Example 571, cyclopropyl(6-(3,5-dichloro-4-hydroxyphenyl)-4-((trans-4-(((R)-3-fluoropyrrolidin)methyl)cyclohexyl)amino)quinolin-3-yl)methanon] | 0.16 µM | 0.18 µM | 0.08 µM | 0.39 µM | 0.0043 µM |  |  |  |  | 
COc1cc(-c2cc3c(Nc4ccc(CN(C)C)cc4)c(C(=O)C4CC4)cnc3cc2F)cc(Cl)c1O [Example 540, (6-(3-chloro-4-hydroxy-5-methoxyphenyl)-4-(4-((dimethylamino)methyl)phenylamino)-7-fluoroquinolin-3-yl)(cyclopropyl)methanone] | 0.25 µM | 0.89 µM | 0.35 µM | 3.7 µM | 0.064 µM |  |  |  |  | 
NC1CCCN(c2ccc(Nc3c(C(=O)C4CC4)cnc4ccc(-c5cc(F)c(O)c(Cl)c5)cc34)cn2)C1 (centres unmarked) [Example 561, (4-(6-(3-aminopiperidin-1-yl)pyridin-3-ylamino)-6-(3-chloro-5-fluoro-4-hydroxyphenyl)quinolin-3-yl)(cyclopropyl)methanone] | 0.008 µM | 0.0055 µM | 0.0066 µM | 0.3 µM | 0.0027 µM |  |  |  |  | 
